Assay results taken from US6069132A, “Phosphazole compounds” (priority 1997, dated 2000).
Converted amounts (≈) assume the structure as drawn.

Experiments:
[1] = tested on: HCMV; conditions: cited from earlier work
[2] = Cytotoxicity on growing MRC-5 cells (MTS); format: cell-based, human; conditions: human, mrc-5 cells; Table 4; 50% inhibition of logphase growing cells; read-out: TC50 Growing MRC-5
Procedure: (§1) Cell Culture. Vero (African Green Monkey kidney cells) and MRC-5 (diploid Human Embryonic Lung fibroblasts) cells were obtained from the American Type Culture Collection (ATCC) and were grown in minimal essential medium (MEM) with Earl's salts and glutamine (GIBCO BRL, Life Technologies, Inc.) with 10% heat inactivated fetal bovine serum (GIBCO BRL) and penicillin (100 μg/mL)/streptomycin (100 μg/mL).
(§2) Cytotoxicity Analysis. The cytotoxicity of the compound was assayed using few the CellTiter 96™ Aqueous Non-Radioactive Cell Proliferation (MTS) Assay (Promega). Briefly, viable cell number was determined by trypan blue staining and cells (MRC-5 and Vero) were resuspended in minimal essential medium (MEM) supplemented with 10% FBS (GIBCO). Eighty microliters of cell suspension (1.7×10^4 cells/well) was dispensed onto a 96-well microtiter plates. At this time 20 μL of drug (or control) was added to appropriate wells. Each concentration was assayed in quadruplicate. The plates were incubated at 37° C. in a humidified 5% CO2 atmosphere for 4 days and MTS assay was performed according to the manufacturer's instructions. The average absorbence of the sample was graphed for each concentration and the data obtained was used to calculate TC50 (the concentration necessary to give one-half maximum growth) for each compound.

[3] = Cytotoxicity on growing Vero cells (MTS); format: cell-based; conditions: african green monkey, Table 4, 50% inhibition of logphase growing cells, read-out: TC50 Growing Vero
Procedure: as §1, §2

[4] = tested on: HSV-2; assay: HSV-2 CPE assay in Vero cells; format: cell-based; conditions: Human alphaherpesvirus 2, Vero
[5] = tested on: HSV-1; assay: HSV-1 CPE assay in Vero cells; format: cell-based; conditions: Human alphaherpesvirus 1, Vero
[6] = Cytotoxicity on static MRC-5 cells; format: cell-based; conditions: human, Table 4, 50% cell death (static cells), read-out: TC50 Static MRC-5
Procedure: as §1, §2

[7] = Cytotoxicity on static Vero cells; format: cell-based; conditions: african green monkey, Table 4, 50% cell death (static cells), read-out: TC50 Static Vero
Procedure: as §1, §2

[8] = tested on: TNFα; assay: Inhibition of TNFα production in LPS-stimulated THP-1 cells (ELISA); format: cell-based, human; conditions: for IC50: Homo sapiens, Table 2, LPS-stimulated THP-1, 6 h post-stimulation
Procedure: (§3) Cell line. THP-1 cells (human monocyte) were maintained in RPMI 1640 medium containing 25 mM Hepes buffer, 2 mM L-glutamine, 50 units of penicillin per mL, 50 μg of streptomycin sulfate per mL, and 10% heat-inactivated fetal bovine serum (FBS) in a humidified incubator containing 5% CO2. The cells were split 1:4 weekly as recommended by the American Type Culture Collection (ATCC).
(§4) TNFα assay. Varying concentrations of the test compound or control compound were added to THP-1 cells plated at a density of 1×10^6cells/mL in 600 μL of 10% RPMI in a 48 well plate. After one hour the cells were stimulated with 0.5 μg of lipopolysaccharide (LPS; Sigma, lot number 43H40491) per mL. Six hours post-stimulation supernatants were collected and assayed for TNFα or IL-1β production using a commercially available cytokine detection ELISA (Enzyme Linked Immunosorbent Assay) kit according to the suppliers instructions. A suitable assay kit may be obtained from Biosource, or R and D systems. A novel xanthine analog, HWA-3138, having the structure (as shown below) was used as the control compound (30) in this study to monitor the response of the THP-l cells. Xanthine analogs are known inhibitors of TNFα but not IL-1β. In the following experiments compound HWA-3138 was used as a positive control. [drawing 58]
Time of Addition. Varying concentrations of test or control compounds were added to THP-1 cells (1×10^6 cells/mL) at different time points post-stimulation using 0.5 μg of LPS (Sigma, lot number 43H40491) per mL in 300 μL of 10% RPMI in a 48 well plate. Six hours post-stimulationsupernatants were collected and assayed for TNFα or IL-1β production using a Biosource cytokine detection ELISA (Enzyme Linked Immunosorbent Assay) kit according to the supplier's instructions.
The membrane bound TNFα was separated from the free TNFα in the culture medium at 6 hours post-LPS stimulation as follows: The corresponding cells were centrifuged at 3500 rpm (~1,000×g) for 6 min. The supernatants were removed and the cell pellets were then resuspended in 200 μL of 0.25 mM Tris-HCl (pH 7.4). The cell associated TNFα was prepared by freezing the cell suspension in dry ice/ethanol and thawing at 37° C. three times with Vortexing in-between freeze-thaw cycles. Each cycle was 4-5 min apart.
To determine the long-term effects of phosphazole compound T70241 on TNFα production after a single treatment, THP-1 cells were pre-incubated with T70241, washed and resuspended in drug free medium. The xanthine analog HWA-3138 was used as a control.

[9] = tested on: IL-1β; assay: Inhibition of IL-1β production in LPS-stimulated THP-1 cells (ELISA); format: cell-based, human; conditions: for IC50: Homo sapiens, Table 2, LPS-stimulated THP-1, 6 h post-stimulation, read-out: IC50 IL-1β in THP-1 cells
Procedure: as §3
as §4, with “58] […]” for “58]”
THP-1 cells were cultured and IL-1β inhibition assays were conducted as described for TNFα in Example 46, except a commercially available IL-1β assay kit, obtained from R and D Systems, Minneapolis, Minn., was used instead of the TNFα kit.
With reference now to FIG. 8, for each concentration of T70241 tested, the membrane bound IL-1β was separated from the IL-1β found free in the culture medium at 6 hours post-LPS stimulation as described in Example 46 for TNFα, and the percent inhibition of each fraction was graphed.

[10] = tested on: adenosine deaminase (ADA); assay: Enzymatic hydrolysis by adenosine deaminase; format: in vitro ADME, calf; conditions: 25° C.
Procedure: Adenosine deaminase (ADA, adenosine aminohydrolase, EC 3.5.4.4, SIGMA) from calf intestinal mucosa was prepared to give a stock of 1 mg/mL (250-280 units/mL) in pH 7.4, 0.01 M phosphate buffer. The relative rates of hydrolysis of selected compounds by ADA and characterization of the products was carried as follows. […] Fifty-microliter aliquots were taken at time intervals and hydrolysis was quenched by mixing with 0.45 mL of distilled water and then the diluted sample was heated at 95° C. for 6 min to ensure enxyme deactivation. The decrease in substrate concentration and the formation of the products was followed over time by UV-spectroscopic analysis. Adenosine was used as a control in this experiment and one unit is defined as the amount of ADA that hydrolyzes 1.0 μmol of adenosine/min at 25° C.

[11] = tested on: TNFα; conditions: by inhibition of PDE activity; cited from earlier work
[12] = Cytotoxicity on growing THP-1 cells (MTS assay); format: cell-based, human; conditions: human, thp-1 cells; Table 2; drug dose required to inhibit logphase growing cells by 50%; read-out: TC50 Growing THP-1
Procedure: Cytotoxicity Analysis. The cytotoxicity of the compounds were assayed using the CellTiter 96™ Aqueous Non-Radioactive Cell Proliferation (MTS) Assay kit obtained from Promega (Madison, Wis.) following the instructions provided by the supplier. The viable cell number was determined by trypan blue staining and cells (THP-1) were resuspended in PRMI supplemented with 10% FBS (GIBCO). Eighty microliters of cell suspension (1.7×10^4cells/well) was dispensed onto a 96-well microtiter plates. At this time 20 μL of drug (or control) was added to appropriate wells. Each concentration was assayed in quadruplicate. The plates were incubated at 37° C. in a humidified 5% CO2 atmosphere for 4 days and MTS assay […] for each concentration and the data obtained was used to calculate TC50 (the concentration of the compound necessary to inhibit the cell growth by 50%) for each compound.

[13] = tested on: HCMV (Town strain); assay: HCMV plaque reduction (CPE) assay in MRC-5 cells; format: cell-based, human cytomegalovirus; conditions: Human betaherpesvirus 5, MRC5; Table 4; read-out: IC50 HCMV
Procedure: The adenine analog phosphazole (compound T70241) was assayed for antiviral activity using a HCMV plaque reduction assay, in accordance with known methods such as that described in U.S. Pat. No. 5,446,045.
as §1
CMV Cytopathic Effect (CPE) Assay. Assays were performed essentially as described by Lewis et al. (111), which report is incorporated herein by reference. MRC-5 cells (100,000 cells/well) were seeded in 24-well plates overnight. Medium was then removed and wells were rinsed once with 250 μL of 2% FCS-MEM before adding 40-50 pfu of HCMV (Town strain) to each well. After 2 hours of virus adsorption, the medium was removed and the cells were rinsed once with 2% FCS-MEM. Varying concentrations of the phosphazole compound in the culture medium (1 mL) was then added to appropriate wells and plates were incubated for 5-6 days at 37° C. in a humidified 5% CO2 atmosphere. Each concentration was tested in duplicate wells.
The extent of the plaque reduction was quantitated by removing the media and adding 200 μL of 0.1% crystal violet in 20% methanol to all wells. The crystal violet was then removed after 10 min staining at room temperature by rinsing in the sink with tap water and the plates dried overnight. The plaques were then counted using a Nikon inverted microscope.

NC(=O)c1cn([C@H]2C[C@H](O)[C@@H](CO)O2)c2ncnc(N)c12 [2'-deoxysangivamycin]
activity against HCMV [1]: selective activity against HCMV

Nc1nc2c(ncn2COCCO)c(=O)[nH]1 [ACV, acyclovir, reference compound]
CC50 at 96 h [2]: > 250 µg/mL
CC50 at 96 h [3]: > 250 µg/mL
IC50 ([4]; Table 4): 0.74 µg/mL (≈ 3.29 µM)
IC50 ([5]; Table 4): 0.1 µg/mL (≈ 0.444 µM)
CC50 at 96 h [6]: > 250 µg/mL
CC50 at 96 h [7]: > 250 µg/mL

Nc1ncnc2nc[nH]c12 [Adenine, reference compound]
IC50 [8]: > 250 µg/mL
IC50 [9]: > 250 µg/mL

Nc1ncnc2c1ncn2[C@@H]1O[C@H](CO)[C@@H](O)[C@H]1O [Adenosine, reference compound]
rate of hydrolysis by ADA [10]: 1.0 pmole/unit per min
IC50 [8]: 100 µg/mL (≈ 374 µM)
suppression of TNFα production [11]: suppression of TNFα production
IC50 [9]: > 250 µg/mL

Cn1c(=O)n(CCCCC(C)(C)O)c(=O)c2nc[nH]c21 [HWA-3138, reference compound]
CC50 at 96 h [12]: 316 µg/mL (≈ 1130 µM)
inhibition of TNFα production ([8]; 10 and 100 μg/mL, THP-1, 6 h post-stimulation (FIG. 2)): no inhibition
IC50 [8]: 255 µg/mL (≈ 908 µM)
inhibition of IL-1β production ([9]; 10-250 μg/mL, THP-1 (FIG. 6)): does not inhibit IL-1β production
IC50 [9]: > 500 µg/mL

O=c1[nH]cnc2pc[nH]c12 (stereo not drawn) [T70256, 1,3-azaphospholo[4,5-d]pyrimidin-7(1H,6H)-one]
IC50 [8]: 168 µg/mL (≈ 1100 µM)
IC50 [9]: 170 µg/mL (≈ 1110 µM)

Nc1ncnc2pcn([C@@H]3O[C@H](CO)[C@@H](O)[C@H]3O)c12 (stereo partly drawn) [T70264, 7-Amino-1-(β-D-ribofuranosyl)-1,3-azaphospholo-[4,5-d]pyrimidine]
CC50 at 96 h [12]: 118 µg/mL (≈ 413 µM)
IC50 [8]: 126 µg/mL (≈ 444 µM)
IC50 [9]: > 100 µg/mL

Nc1ncnc2pcn([C@H]3C[C@H](O)[C@@H](CO)O3)c12 (stereo partly drawn) [T70265, 7-Amino-1-(2-deoxy-β-D-eythro-pentofuranosyl)-1,3-azaphospholo[4,5-d]pyrimidine]
CC50 at 96 h [12]: 105 µg/mL (≈ 390 µM)
IC50 [8]: 26.2 µg/mL (≈ 97.6 µM)
IC50 [9]: > 100 µg/mL

Nc1ncnc2pcn(COCCO)c12 (stereo not drawn) [T70268, 7-Amino-1-[(2-hydroxyethoxy)methyl]-1,3-azaphospholo-[4,5-d]pyrimidine]
IC50 [8]: > 100 µg/mL
CC50 at 96 h [2]: > 50 µg/mL
CC50 at 96 h [3]: > 50 µg/mL
IC50 ([4]; Table 4): > 50 µg/mL
IC50 ([5]; Table 4): > 50 µg/mL
CC50 at 96 h [6]: > 50 µg/mL
IC50 [13]: > 50 µg/mL
CC50 at 96 h [7]: > 50 µg/mL
IC50 [9]: > 100 µg/mL

Nc1ncnc2pcn(COC(CO)CO)c12 (stereo not drawn) [T70269, 7-Amino-1-[(1,3-dihydroxy-2-propoxy)methyl]-1,3-azaphospholo [4,5-d]pyrimidine]
IC50 [8]: > 100 µg/mL
CC50 at 96 h [2]: > 50 µg/mL
CC50 at 96 h [3]: 41.4 µg/mL (≈ 162 µM)
IC50 [4]: 27.8 µg/mL (≈ 108 µM)
IC50 [5]: 2.75 µg/mL (≈ 10.7 µM)
CC50 at 96 h [6]: > 50 µg/mL
IC50 [13]: 26.1 µg/mL (≈ 102 µM)
CC50 at 96 h [7]: > 50 µg/mL
IC50 [9]: > 100 µg/mL

O=c1[nH]c(=O)c2[nH]cpc2[nH]1 (stereo not drawn) [T70270, 1,3-Azaphospholo[4,5-d]pyrimidine-5,7(1H, 4H,6H) -dione]
IC50 [8]: 239 µg/mL (≈ 1410 µM)
IC50 [9]: > 250 µg/mL

Cn1c(=O)c2c(pcn2C)n(C)c1=O (stereo not drawn) [T70271, 1,4,6-Trimethyl-1,3-azaphospholo[4,5-d]pyrimidine-5,7-dione]
IC50 [8]: 37.3 µg/mL (≈ 177 µM)
IC50 [9]: > 250 µg/mL

N#Cc1cn([C@@H]2O[C@H](CO)[C@@H](O)[C@@H]2O)c2ncnc(N)c12 [ara-toyocamycin]
activity against HCMV [1]: selective activity against HCMV

Nc1ncnc2c1ccn2[C@@H]1O[C@H](CO)[C@@H](O)[C@@H]1F [arafluoro-tubercidin]
activity against HCMV [1]: selective activity against HCMV

CC(=O)CCCCn1c(=O)c2c(ncn2C)n(C)c1=O [pentoxifylline]
suppression of TNFα production [11]: suppression of TNFα production
